Assay results as given in the NIST ThermoML archive (doi:10.1016/j.jct.2011.06.013).
± gives the expanded uncertainty stated by the source.

Columns and labels:
[1] = 101.33 kPa, Liquid; for viscosity: Falling or rolling sphere viscometry
[2] = xn = mol fraction of the nth substance listed; details: 101 kPa, Liquid; for viscosity: Falling or rolling sphere viscometry

OCCO [1,2-ethanediol]
mass density [kg/m3], [1]
Details | Buoyancy - hydrostatic balance | Pycnometric method
293.15 K | 1113.58 ± 6.7 | 1113.58 ± 6.7
312.46 K | 1100.88 ± 6.6 | –
314.45 K | – | 1099.52 ± 6.6
333.25 K | – | 1086.3 ± 6.5
333.55 K | – | 1086.09 ± 6.5
334.87 K | 1085.13 ± 6.5 | –
349.24 K | 1074.46 ± 6.5 | –
352.85 K | – | 1071.71 ± 6.4
353.65 K | – | 1071.1 ± 6.4
357.05 K | – | 1068.48 ± 6.4
365.7 K | 1061.7 ± 6.4 | –
367.25 K | – | 1060.47 ± 6.4
380.82 K | 1049.47 ± 6.3 | –
381.45 K | – | 1048.95 ± 6.3
395.55 K | 1037.07 ± 6.2 | –
411.65 K | – | 1023 ± 6.2
421.7 K | 1013.93 ± 6.1 | –
433.75 K | – | 1002.77 ± 6
461.55 K | – | 975.83 ± 5.9
464.4 K | 972.98 ± 5.8 | –

[1]
Details | viscosity [mPa·s]
293.15 K | 21.1 ± 0.86
312.46 K | 9.925 ± 0.4
334.87 K | 4.949 ± 0.2
349.24 K | 3.517 ± 0.14
365.7 K | 2.39 ± 0.097
380.82 K | 1.815 ± 0.074
395.55 K | 1.419 ± 0.058
421.7 K | 0.96 ± 0.039
464.4 K | 0.652 ± 0.027

OCCOCCO [diethylene glycol]
mass density [kg/m3], [1]
Details | Buoyancy - hydrostatic balance | Pycnometric method
293.15 K | 1117.04 ± 6.7 | 1117.04 ± 6.7
298.15 K | 1114.02 ± 6.7 | –
312.6 K | 1104.9 ± 6.6 | –
313.15 K | – | 1104.54 ± 6.6
314.15 K | – | 1103.88 ± 6.6
329.28 K | 1093.62 ± 6.6 | –
333.25 K | – | 1090.82 ± 6.6
334.85 K | – | 1089.68 ± 6.5
344.99 K | 1082.27 ± 6.5 | –
349.77 K | 1078.67 ± 6.5 | –
352.55 K | – | 1076.55 ± 6.5
352.85 K | – | 1076.32 ± 6.5
366.77 K | 1065.35 ± 6.4 | –
367.25 K | – | 1064.96 ± 6.4
381.65 K | – | 1053.01 ± 6.3
411.05 K | – | 1026.74 ± 6.2
413.65 K | 1024.3 ± 6.2 | –
434.45 K | – | 1004.06 ± 6
464.05 K | 973.11 ± 5.8 | –

[1]
Details | viscosity [mPa·s]
293.15 K | 36.52 ± 1.5
298.15 K | 28.36 ± 1.1
312.6 K | 15.25 ± 0.62
329.28 K | 8.458 ± 0.34
344.99 K | 5.34 ± 0.22
349.77 K | 4.809 ± 0.2
366.77 K | 3.231 ± 0.13
413.65 K | 1.409 ± 0.057
464.05 K | 0.789 ± 0.032

OCCOCCO [diethylene glycol] + OCCO
mass density [kg/m3], [2]
Details | 298.15 K | 318.55 K | 322.34 K | 333.45 K | 353.83 K | 367.15 K | 392.87 K | 436.08 K | 462.75 K
Buoyancy - hydrostatic balance, x2 = 0.5 | 1112.21 ± 6.7 | – | 1097.38 ± 6.6 | – | 1075.19 ± 6.5 | – | 1043.14 ± 6.3 | 1001.82 ± 6 | 973.24 ± 5.8
Pycnometric method, x1 = 0.5 | 1112.21 ± 6.7 | 1099.83 ± 6.6 | – | 1089.92 ± 6.5 | – | 1064.82 ± 6.4 | – | – | –

[2], x1 = 0.5
Details | viscosity [mPa·s]
298.15 K | 21.12 ± 0.86
322.34 K | 8.316 ± 0.34
353.83 K | 3.488 ± 0.14
392.87 K | 1.641 ± 0.067
436.08 K | 0.885 ± 0.036
462.75 K | 0.671 ± 0.027

OCCOCCOCCO [triethylene glycol]
[1]
Details | mass density [kg/m3]
293.15 K, Pycnometric method | 1123.06 ± 6.8
298.15 K, Buoyancy - hydrostatic balance | 1119.75 ± 6.7
312.96 K, Buoyancy - hydrostatic balance | 1109.61 ± 6.7
313.15 K, Pycnometric method | 1109.47 ± 6.7
314.15 K, Pycnometric method | 1108.77 ± 6.7
333.25 K, Pycnometric method | 1094.96 ± 6.6
334.85 K, Pycnometric method | 1093.76 ± 6.6
334.96 K, Buoyancy - hydrostatic balance | 1093.69 ± 6.6
349.25 K, Buoyancy - hydrostatic balance | 1082.8 ± 6.5
352.55 K, Pycnometric method | 1080.21 ± 6.5
352.85 K, Pycnometric method | 1079.98 ± 6.5
364.44 K, Buoyancy - hydrostatic balance | 1070.74 ± 6.4
367.25 K, Pycnometric method | 1068.46 ± 6.5
381.45 K, Pycnometric method | 1056.66 ± 6.4
411.65 K, Pycnometric method | 1030.16 ± 6.2
413.73 K, Buoyancy - hydrostatic balance | 1028.27 ± 6.2
433.75 K, Pycnometric method | 1009.54 ± 6.1
461.56 K, Pycnometric method | 982.12 ± 6
462.25 K, Buoyancy - hydrostatic balance | 981.42 ± 5.9
476.35 K, Pycnometric method | 966.87 ± 5.9

[1]
Details | viscosity [mPa·s]
298.15 K | 36.82 ± 1.5
312.96 K | 19.03 ± 0.79
334.96 K | 9.002 ± 0.37
349.25 K | 5.945 ± 0.25
364.44 K | 4.131 ± 0.17
413.73 K | 1.679 ± 0.069
462.25 K | 0.997 ± 0.041

OCCOCCOCCO [triethylene glycol] + OCCO
mass density [kg/m3], [2]
Details | 298.13 K | 298.15 K | 322.36 K | 355.34 K | 392.2 K | 434.59 K | 462.61 K
Buoyancy - hydrostatic balance, x2 = 0.5 | 1115.1 ± 6.7 | – | 1101.75 ± 6.6 | 1079 ± 6.5 | 1047.37 ± 6.3 | 1002.88 ± 6 | 968.72 ± 5.8
Pycnometric method, x1 = 0.5 | – | 1115.45 ± 6.7 | – | – | – | – | –

[2], x1 = 0.5
Details | viscosity [mPa·s]
298.13 K | 26.24 ± 1.1
322.36 K | 10.13 ± 0.41
355.34 K | 3.999 ± 0.16
392.2 K | 1.946 ± 0.08
434.59 K | 1.058 ± 0.043
462.61 K | 0.705 ± 0.029

OCCOCCOCCO [triethylene glycol] + OCCOCCO
mass density [kg/m3], [2]
Details | 298.15 K | 322.43 K | 355.15 K | 391.02 K | 432.13 K | 473.1 K
Buoyancy - hydrostatic balance, x2 = 0.5 | 1116.28 ± 6.7 | 1104.5 ± 6.6 | 1083.98 ± 6.5 | 1055.33 ± 6.3 | 1014.59 ± 6.1 | 965.58 ± 5.8
Pycnometric method, x1 = 0.5 | 1115.61 ± 6.7 | – | – | – | – | –

[2], x1 = 0.5
Details | viscosity [mPa·s]
298.15 K | 32.4 ± 1.3
322.43 K | 11.71 ± 0.48
355.15 K | 4.468 ± 0.18
391.02 K | 2.179 ± 0.089
432.13 K | 1.172 ± 0.048
473.1 K | 0.716 ± 0.029
